Assay results from US11590139B2, “Substituted aminopurine compounds, compositions thereof, and methods of treatment therewith” (Signal Pharmaceuticals, LLC, priority 2014, dated 2023).
Read-outs that look alike come from different tables or passages of the source.

Tested on: Lox-IMVI melanoma cell line
Experiment: Lox-IMVI anti-proliferative assay (growth inhibition, Cell Titer-Glo)
Type: cell-based, human
Conditions: Homo sapiens
Procedure: Determination of the Growth Inhibitory Effect of Aminopurine Compounds. The Lox-IMVI melanoma cell line (Source: NCI-DCTD, catalog No. 0507283) was maintained and tested in RPMI+10% FBS. The seeding density for the cell line was optimized to ensure assay linearity in 384-well plates.
Increasing concentrations of Aminopurine Compound (0.5 nM to 10 μM) were spotted in a 10-point serial dilution fashion (3-fold dilution) in duplicate within the plate via an acoustic dispenser (EDC ATS-100) into an empty 384-well plate. The dimethyl sulfoxide (DMSO) concentration was kept constant for a final assay concentration of 0.2% DMSO. Prior to testing, cells were grown and expanded in culture flasks to provide sufficient amounts of starting material. Cells were then diluted to their desired densities and added directly to the compound-spotted 384-well plates. Cells were allowed to grow for 72 hours in 5% CO2 at 37° C. At the time when exposure of cells to compound began (t0), initial cell number was assessed via a viability assay (Cell Titer-Glo) by quantifying the level of luminescence generated by adenosine-5′-triphosphate (ATP) present in viable cells. After 72 hours, cell viability of compound-treated cells was assessed via Cell Titer-Glo Luminescent Cell Viability Assay (Promega Corporation, Madison, Wis.) and read for luminescence.
All data was normalized and represented as a percentage of the DMSO-treated control cells after 72 h. Results were expressed as a IC50 value, which is the compound concentration required to inhibit 50% of the untreated control cells during the 72 hours of treatment.
A Four Parameter Logistic Model (Sigmoidal Dose-Response Model) was used to determine the compound's IC50. y=(A+((B−A)/(1+((C/x)^D))))
wherein: • A=YMin • B=YMax • C=EC50 • D=Hill Slope • IC50 is the compound concentration when Y=50% of DMSO control • Y=Luminescence unit
All inhibition curves were processed and evaluated using XLFit and Activity Base (IDBS).

[1] = IC50 activity level in the cell-based Lox-IMVI anti-proliferative assay, read-out: Activity
[2] = Lox-IMVI melanoma cell line, anti-proliferative assay, read-out: Activity (IC50 activity level)
[3] = Lox-IMVI anti-proliferative assay, IC50 activity level, read-out: Activity

SMILES | IC50 [1] [nM] | IC50 [2] [nM] | also measured
NC(=O)[C@H]1CC[C@@H](n2c(Nc3ccc(Cl)cc3Cl)nc3cnc(NC4CCC(F)(F)CC4)nc32)CC1 [Example 240, (1s,4s)-4-(8-(2,4-dichlorophenylamino)-2-(4,4-difluorocyclohexylamino)-9H-purin-9-yl)cyclohexanecarboxamide] | > 1000 | – | –
N#Cc1cc(F)c(Nc2nc3cnc(NC4CC5(COC5)C4)nc3n2[C@H]2CC[C@@H](C(N)=O)CC2)c(F)c1 [Example 573, (1s,4s)-4-(2-(2-oxaspiro[3.3]heptan-6-ylamino)-8-(4-cyano-2,6-difluorophenylamino)-9H-purin-9-yl)cyclohexanecarboxamide] | – | – | IC50 [3]: > 1000 nM
C[C@]1(C(N)=O)CC[C@H](n2c(Nc3c(F)cc(Cl)cc3F)nc3cnc(NC4CCCC4)nc32)CC1 [Example 489, (1r,4r)-4-(8-(4-chloro-2,6-difluorophenylamino)-2-(cyclopentylamino)-9H-purin-9-yl)-1-methylcyclohexanecarboxamide] | – | – | IC50 [3]: > 1000 nM
NC(=O)[C@H]1CC[C@@H](n2c(Nc3c(F)cc(F)cc3Cl)nc3cnc(NC4CCCOCC4)nc32)CC1 (stereo partly drawn) [Example 538, (1s,4s)-4-(8-(2-chloro-4,6-difluorophenylamino)-2-(oxepan-4-ylamino)-9H-purin-9-yl)cyclohexanecarboxamide] | – | – | IC50 [3]: 250 to 500 nM
N#Cc1cc(F)c(Nc2nc3cnc(N[C@H]4CCOC[C@H]4F)nc3n2[C@H]2CC[C@@H](C(N)=O)CC2)c(F)c1 [Example 669, (1R,4s)-4-(8-(4-cyano-2,6-difluorophenylamino)-2-((3S,4S)-3-fluorotetrahydro-2H-pyran-4-ylamino)-9H-purin-9-yl)cyclohexanecarboxamide] | – | 500 to 1000 | –
C[C@H]1COCC[C@@H]1Nc1ncc2nc(Nc3c(F)cc(Cl)cc3Cl)n([C@H]3CC[C@@H](C(N)=O)CC3)c2n1 [Example 504, (1R,4s)-4-(8-(2,4-dichloro-6-fluorophenylamino)-2-((3R,4S)-3-methyltetrahydro-2H-pyran-4-ylamino)-9H-purin-9-yl)cyclohexanecarboxamide] | – | – | IC50 [3]: 500 to 1000 nM
NC(=O)[C@H]1CC[C@@H](n2c(Nc3c(F)cc(Cl)cc3Cl)nc3cnc(NC[C@@H]4CCCC[C@H]4O)nc32)CC1 [Example 662, (1R,4s)-4-(8-(2,4-dichloro-6-fluorophenylamino)-2-(((1S,2R)-2-hydroxycyclohexyl)methylamino)-9H-purin-9-yl)cyclohexanecarboxamide] | – | > 1000 | –
CC1(C)CC[C@@H](Nc2ncc3nc(Nc4c(Cl)cc(Cl)cc4Cl)n([C@H]4CC[C@@H](C(N)=O)CC4)c3n2)C[C@H]1O [Example 387, (1S,4s)-4-(2-((1R,3R)-3-hydroxy-4,4-dimethylcyclohexylamino)-8-(2,4,6-tnchlorophenylarnino)-9H-purin-9-yl)cyclohexanecarboxamide] | > 1000 | – | –
CS(=O)(=O)N1CCC[C@@H](Nc2ncc3nc(Nc4c(Cl)cc(Cl)cc4Cl)n([C@H]4CC[C@@H](C(N)=O)CC4)c3n2)C1 [Example 700, (1S,4s)-4-(2-((R)-1-(methylsulfonyl)piperidin-3-ylamino)-8-(2,4,6-trichlorophenylamino)-9H-purin-9-yl)cyclohexanecarboxamide] | – | 500 to 1000 | –
C[C@]1(C(N)=O)CC[C@@H](n2c(Nc3c(Cl)cc(C#N)cc3Cl)nc3cnc(NC4CCOCC4)nc32)CC1 [Example 535, (1s,4s)-4-(8-(2,6-dichloro-4-cyanophenylamino)-2-(tetrahydro-2H-pyran-4-ylamino)-9H-purin-9-yl)-1-methylcyclohexanecarboxamide] | – | – | IC50 [3]: < 250 nM
C[C@]1(C(N)=O)CC[C@@H](n2c(Nc3c(F)cc(F)cc3Cl)nc3cnc(N[C@H]4CCOC[C@H]4F)nc32)CC1 [Example 724, (1R,4s)-4-(8-(2-chloro-4,6-difluorophenylamino)-2-((3S,4S)-3-fluorotetrahydro-2H-pyran-4-ylamino)-9H-purin-9-yl)-1-methylcyclohexanecarboxamide] | – | < 250 | –
CC(C)Nc1ncc2nc(Nc3c(Cl)cc(C#N)cc3Cl)n([C@H]3CC[C@@H](C(N)=O)CC3)c2n1 [Example 431, (1s,4s)-4-(8-(2,6-dichloro-4-cyanophenylamino)-2-(isopropylamino)-9H-purin-9-yl)cyclohexanecarboxamide] | – | – | IC50 [3]: 500 to 1000 nM
C[C@]1(C(N)=O)CC[C@@H](n2c(Nc3c(Cl)cc(C#N)cc3Cl)nc3cnc(N[C@@H]4CCOC[C@H]4F)nc32)CC1 [Example 760, (1S,4s)-4-(8-(2,6-dichloro-4-cyanophenylamino)-2-((3S,4R)-3-fluorotetrahydro-2H-pyran-4-ylamino)-9H-purin-9-yl)-1-methylcyclohexanecarboxamide] | – | < 250 | –
COC[C@H](C)Nc1ncc2nc(Nc3c(Cl)cc(Cl)cc3Cl)n([C@H]3CC[C@@H](C(N)=O)CC3)c2n1 [Example 142, (1R,4s)-4-(2-((S)-1-methoxypropan-2-ylamino)-8-(2,4,6-trichlorophenylamino)-9H-purin-9-yl)cyclohexanecarboxamide] | > 1000 | – | –
NC(=O)[C@H]1CC[C@@H](n2c(Nc3c(F)cc(Cl)cc3Cl)nc3cnc(N[C@@H]4CCC[C@H]4O)nc32)CC1 [Example 255, (1S,4s)-4-(8-(2,4-dichloro-6-fluorophenylamino)-2-((1R,2R)-2-hydroxycyclopentylamino)-9H-purin-9-yl)cyclohexanecarboxamide] | > 1000 | – | –
NC(=O)[C@H]1CC[C@@H](n2c(Nc3c(F)cc(Cl)cc3F)nc3cnc(N[C@@H]4CCC[C@H]4O)nc32)CC1 [Example 257, (1S,4s)-4-(8-(4-chloro-2,6-difluorophenylamino)-2-((1R,2R)-2-hydroxycyclopentylamino)-9H-purin-9-yl)cyclohexanecarboxamide] | 500 to 1000 | – | –

The next lines start with results.

IC50 [1] [nM] | IC50 [2] [nM] | SMILES | also measured
– | < 250 | C[C@]1(C(N)=O)CC[C@@H](n2c(Nc3c(Cl)cc(F)cc3Cl)nc3cnc(N[C@@H]4CC[C@@H](O)C4)nc32)CC1 [Example 638, (1S,4s)-4-(8-(2,6-dichloro-4-fluorophenylamino)-2-((1R,3R)-3-hydroxycyclopentylamino)-9H-purin-9-yl)-1-methylcyclohexanecarboxamide] | –
– | 500 to 1000 | CC1(C)COCC[C@H]1Nc1ncc2nc(Nc3c(F)cc(Cl)cc3Cl)n([C@H]3CC[C@@H](C(N)=O)CC3)c2n1 [Example 764, (1S,4s)-4-(8-(2,4-dichloro-6-fluorophenylamino)-2-((R)-3,3-dimethyltetrahydro-2H-pyran-4-ylamino)-9H-purin-9-yl)cyclohexanecarboxamide] | –
250 to 500 | – | N#Cc1cc(F)c(Nc2nc3cnc(NC4CCC4)nc3n2[C@H]2CC[C@@H](C(N)=O)CC2)c(Cl)c1 [Example 393, (1s,4s)-4-(8-(2-chloro-4-cyano-6-fluorophenylamino)-2-(cyclobutylamino)-9H-purin-9-yl)cyclohexanecarboxamide] | –
> 1000 | – | NC(=O)[C@H]1CC[C@@H](n2c(Nc3ccc(Cl)c(F)c3F)nc3cnc(NC4CC5(COC5)C4)nc32)CC1 [Example 194, (1s,4s)-4-(2-(2-oxaspiro[3.3]heptan-6-ylamino)-8-(4-chloro-2,3-difluorophenylamino)-9H-purin-9-yl)cyclohexanecarboxamide] | –
500 to 1000 | – | NC(=O)[C@H]1CC[C@@H](n2c(Nc3c(F)cccc3Cl)nc3cnc(N[C@@H]4CCC[C@H](O)C4)nc32)CC1 [Example 350, (1S,4s)-4-(8-(2-chloro-6-fluorophenylamino)-2-((1R,3S)-3-hydroxycyclohexylamino)-9H-purin-9-yl)cyclohexanecarboxamide] | –
